For two molecules, IC50 and inhibition results are on record in ChEMBL document CHEMBL5137043, “trans, trans-2-C-Aryl-3,4-dihydroxypyrrolidines as potent and selective β-glucosidase inhibitors: Pharmacological chaperones for Gaucher disease” (Eur J Med Chem, 2022).

Assay [1] is described as follows: Inhibition of yeast alpha-glucosidase assessed as reduction of p-nitrophenol release using p-nitrophenyl-glycoside as substrate by spectrophotometric analysis. Details: species or system Saccharomyces cerevisiae.
Assay [2] in a line: Inhibition of rice alpha-glucosidase assessed as reduction of p-nitrophenol release using p-nitrophenyl-glycoside as substrate by spectrophotometric analysis. Further details: species or system Oryza sativa.
Assay [3] is described as follows: Inhibition of almond beta-glucosidase assessed as reduction of p-nitrophenol release using p-nitrophenyl-glycoside as substrate by spectrophotometric analysis. Further details: species or system Prunus dulcis.
For assay [4], the species on record is Bos taurus. Nature of the assay: Inhibition of bovine liver beta-glucosidase assessed as reduction of p-nitrophenol release using p-nitrophenyl-glycoside as substrate at 1000 uM by spectrophotometric analysis.
Assay [5] in a line: Inhibition of human lysosomal beta-glucosidase assessed as reduction of p-nitrophenol release using p-nitrophenyl-glycoside as substrate by spectrophotometric analysis. Type of assay: subcellular, Lysosome.
For assay [6], the target named is Alpha-galactosidase (Coffea arabica) (UniProt Q42656). Nature of the assay: Inhibition of coffee beans alpha-galactosidase assessed as reduction of p-nitrophenol release using p-nitrophenyl-glycoside as substrate at 1000 uM by spectrophotometric analysis.
Chain of Alpha-galactosidase (Coffea arabica) (Q42656 16-378 limits assumed): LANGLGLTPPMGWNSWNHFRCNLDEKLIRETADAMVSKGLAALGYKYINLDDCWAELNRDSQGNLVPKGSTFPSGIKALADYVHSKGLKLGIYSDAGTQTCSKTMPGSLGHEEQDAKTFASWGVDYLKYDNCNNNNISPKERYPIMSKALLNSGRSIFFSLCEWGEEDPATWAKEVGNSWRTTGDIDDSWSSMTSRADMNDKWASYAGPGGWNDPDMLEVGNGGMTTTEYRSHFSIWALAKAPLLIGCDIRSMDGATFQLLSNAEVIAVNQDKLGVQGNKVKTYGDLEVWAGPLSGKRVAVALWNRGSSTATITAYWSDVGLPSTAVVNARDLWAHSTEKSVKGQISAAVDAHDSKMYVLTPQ
Assay [7] is filed under the species Bos taurus. Nature of the assay: Inhibition of bovine liver beta-galactosidase assessed as reduction of p-nitrophenol release using p-nitrophenyl-glycoside as substrate at 1000 uM by spectrophotometric analysis.
The next assay deals with Helix pomatia. Nature of the assay: Inhibition of snail beta-mannosidase assessed as reduction of p-nitrophenol release using p-nitrophenyl-glycoside as substrate at 1000 uM by spectrophotometric analysis.
Assay [8] concerns the target T1, Tissue alpha-L-fucosidase (Bos taurus) (UniProt Q2KIM0).
T1 sequence (whole entry): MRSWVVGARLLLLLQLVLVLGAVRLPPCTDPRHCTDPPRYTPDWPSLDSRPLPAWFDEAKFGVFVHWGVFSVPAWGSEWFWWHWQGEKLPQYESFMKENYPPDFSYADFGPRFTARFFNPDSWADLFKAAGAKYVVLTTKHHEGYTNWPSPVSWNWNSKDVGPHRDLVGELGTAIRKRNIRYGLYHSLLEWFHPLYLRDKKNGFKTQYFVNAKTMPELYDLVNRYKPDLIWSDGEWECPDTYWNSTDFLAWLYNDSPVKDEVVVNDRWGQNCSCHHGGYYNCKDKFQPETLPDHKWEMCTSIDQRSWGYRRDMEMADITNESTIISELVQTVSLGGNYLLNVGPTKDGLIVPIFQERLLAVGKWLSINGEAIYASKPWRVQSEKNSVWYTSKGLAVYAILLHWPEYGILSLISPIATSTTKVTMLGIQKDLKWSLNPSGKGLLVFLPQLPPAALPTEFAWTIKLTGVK
Nature of the assay: Inhibition of bovine kidney alpha-L-fucosidase assessed as reduction of p-nitrophenol release using p-nitrophenyl-glycoside as substrate at 1000 uM by spectrophotometric analysis. Type of assay: tissue-based.

A short description of assay [9]: Inhibition of porcine kidney alpha-trehalase assessed as reduction of p-nitrophenol release using p-nitrophenyl-glycoside as substrate by spectrophotometric analysis. The assay is classed as tissue-based, Sus scrofa.
Assay [10] in a line: Inhibition of Aspergillus niger amyloglucosidase assessed as reduction of p-nitrophenol release using p-nitrophenyl-glycoside as substrate by spectrophotometric analysis.
The test system of another assay is Penicillium decumbens. As to the kind of experiment: Inhibition of Penicillium decumbens alpha-L-rhamnosidase assessed as reduction of p-nitrophenol release using p-nitrophenyl-glycoside as substrate at 1000 uM by spectrophotometric analysis.
In a further assay the test system is Escherichia coli. Nature of the assay: Inhibition of Escherichia coli beta-glucuronidase assessed as reduction of p-nitrophenol release using p-nitrophenyl-glycoside as substrate at 1000 uM by spectrophotometric analysis.
The species named for assay [11] is Bos taurus. Nature of the assay: Inhibition of bovine liver beta-glucuronidase assessed as reduction of p-nitrophenol release using p-nitrophenyl-glycoside as substrate at 1000 uM by spectrophotometric analysis.
Another assay has as its system Saccharomyces cerevisiae. Nature of the assay: Inhibition of yeast alpha-glucosidase assessed as reduction of p-nitrophenol release using p-nitrophenyl-glycoside as substrate at 1000 uM by spectrophotometric analysis.
For a further assay, the system named is Oryza sativa. As to the kind of experiment: Inhibition of rice alpha-glucosidase assessed as reduction of p-nitrophenol release using p-nitrophenyl-glycoside as substrate at 1000 uM by spectrophotometric analysis.
Assay [12] deals with Sucrase-isomaltase, intestinal (Rattus norvegicus, UniProt P23739). Nature of the assay: Inhibition of rat small intestinal sucrase assessed as reduction of p-nitrophenol release using p-nitrophenyl-glycoside as substrate by spectrophotometric analysis. The assay is classed as tissue-based, Small intestine.
Chain of Sucrase-isomaltase, intestinal (P23739 1-1013 limits assumed): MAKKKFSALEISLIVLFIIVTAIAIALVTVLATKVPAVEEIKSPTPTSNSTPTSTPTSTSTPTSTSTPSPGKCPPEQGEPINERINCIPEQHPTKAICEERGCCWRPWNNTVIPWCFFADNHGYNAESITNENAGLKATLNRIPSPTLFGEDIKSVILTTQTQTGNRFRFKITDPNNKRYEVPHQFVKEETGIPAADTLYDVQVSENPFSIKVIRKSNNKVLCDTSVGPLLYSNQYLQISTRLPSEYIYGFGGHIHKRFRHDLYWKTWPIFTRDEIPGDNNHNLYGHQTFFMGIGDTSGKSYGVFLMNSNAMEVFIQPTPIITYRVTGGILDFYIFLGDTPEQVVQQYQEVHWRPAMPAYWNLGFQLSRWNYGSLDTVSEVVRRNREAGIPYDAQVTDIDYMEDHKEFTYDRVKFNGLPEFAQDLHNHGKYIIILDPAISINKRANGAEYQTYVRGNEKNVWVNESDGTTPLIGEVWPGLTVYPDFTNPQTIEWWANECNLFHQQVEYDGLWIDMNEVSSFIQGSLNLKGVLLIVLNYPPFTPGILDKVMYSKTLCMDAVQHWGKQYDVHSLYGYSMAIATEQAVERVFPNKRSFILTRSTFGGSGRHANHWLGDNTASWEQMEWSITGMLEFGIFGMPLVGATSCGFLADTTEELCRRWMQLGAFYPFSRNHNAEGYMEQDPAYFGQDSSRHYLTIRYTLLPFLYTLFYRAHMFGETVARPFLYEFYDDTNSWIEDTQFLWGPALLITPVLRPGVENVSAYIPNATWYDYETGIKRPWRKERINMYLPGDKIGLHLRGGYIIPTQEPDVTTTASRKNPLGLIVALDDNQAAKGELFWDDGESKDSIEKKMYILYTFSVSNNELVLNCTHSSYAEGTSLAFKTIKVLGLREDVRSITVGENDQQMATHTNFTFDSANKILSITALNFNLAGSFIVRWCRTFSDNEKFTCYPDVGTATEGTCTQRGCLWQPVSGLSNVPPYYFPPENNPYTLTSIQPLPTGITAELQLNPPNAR
Chain of Sucrase-isomaltase, intestinal (P23739 1014-1841 limits assumed): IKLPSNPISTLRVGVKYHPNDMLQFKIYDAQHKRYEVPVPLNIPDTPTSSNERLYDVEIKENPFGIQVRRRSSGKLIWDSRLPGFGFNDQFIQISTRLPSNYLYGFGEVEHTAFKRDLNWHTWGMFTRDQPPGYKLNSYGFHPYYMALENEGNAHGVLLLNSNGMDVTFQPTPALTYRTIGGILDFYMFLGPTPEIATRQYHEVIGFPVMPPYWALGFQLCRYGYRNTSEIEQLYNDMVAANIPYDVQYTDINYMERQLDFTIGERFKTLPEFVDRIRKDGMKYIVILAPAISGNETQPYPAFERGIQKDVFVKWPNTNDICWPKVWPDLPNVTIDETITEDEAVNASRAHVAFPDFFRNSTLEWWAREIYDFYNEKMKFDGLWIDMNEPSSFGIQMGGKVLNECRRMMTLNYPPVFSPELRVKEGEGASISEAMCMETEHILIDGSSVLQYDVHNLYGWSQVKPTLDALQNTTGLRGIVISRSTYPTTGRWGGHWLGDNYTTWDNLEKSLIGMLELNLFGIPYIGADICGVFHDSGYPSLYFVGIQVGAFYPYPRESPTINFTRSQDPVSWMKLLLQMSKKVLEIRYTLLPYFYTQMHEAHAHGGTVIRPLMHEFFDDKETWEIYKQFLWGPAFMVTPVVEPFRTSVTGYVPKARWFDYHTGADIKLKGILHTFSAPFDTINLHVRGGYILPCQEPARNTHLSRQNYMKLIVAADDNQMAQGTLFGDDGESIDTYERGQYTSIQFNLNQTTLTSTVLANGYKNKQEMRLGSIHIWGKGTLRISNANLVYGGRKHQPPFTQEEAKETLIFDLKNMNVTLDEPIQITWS
The test system of the next assay is Prunus dulcis. As to the kind of experiment: Inhibition of almond beta-glucosidase assessed as reduction of p-nitrophenol release using p-nitrophenyl-glycoside as substrate at 1000 uM by spectrophotometric analysis.
Assay [13] is described as follows: Inhibition of bovine liver beta-galactosidase assessed as reduction of p-nitrophenol release using p-nitrophenyl-glycoside as substrate by spectrophotometric analysis. Further details: species or system Bos taurus.
In assay [14] the target is T2, Alpha-mannosidase (Canavalia ensiformis) (UniProt C0HJB3).
T2 sequence (whole entry): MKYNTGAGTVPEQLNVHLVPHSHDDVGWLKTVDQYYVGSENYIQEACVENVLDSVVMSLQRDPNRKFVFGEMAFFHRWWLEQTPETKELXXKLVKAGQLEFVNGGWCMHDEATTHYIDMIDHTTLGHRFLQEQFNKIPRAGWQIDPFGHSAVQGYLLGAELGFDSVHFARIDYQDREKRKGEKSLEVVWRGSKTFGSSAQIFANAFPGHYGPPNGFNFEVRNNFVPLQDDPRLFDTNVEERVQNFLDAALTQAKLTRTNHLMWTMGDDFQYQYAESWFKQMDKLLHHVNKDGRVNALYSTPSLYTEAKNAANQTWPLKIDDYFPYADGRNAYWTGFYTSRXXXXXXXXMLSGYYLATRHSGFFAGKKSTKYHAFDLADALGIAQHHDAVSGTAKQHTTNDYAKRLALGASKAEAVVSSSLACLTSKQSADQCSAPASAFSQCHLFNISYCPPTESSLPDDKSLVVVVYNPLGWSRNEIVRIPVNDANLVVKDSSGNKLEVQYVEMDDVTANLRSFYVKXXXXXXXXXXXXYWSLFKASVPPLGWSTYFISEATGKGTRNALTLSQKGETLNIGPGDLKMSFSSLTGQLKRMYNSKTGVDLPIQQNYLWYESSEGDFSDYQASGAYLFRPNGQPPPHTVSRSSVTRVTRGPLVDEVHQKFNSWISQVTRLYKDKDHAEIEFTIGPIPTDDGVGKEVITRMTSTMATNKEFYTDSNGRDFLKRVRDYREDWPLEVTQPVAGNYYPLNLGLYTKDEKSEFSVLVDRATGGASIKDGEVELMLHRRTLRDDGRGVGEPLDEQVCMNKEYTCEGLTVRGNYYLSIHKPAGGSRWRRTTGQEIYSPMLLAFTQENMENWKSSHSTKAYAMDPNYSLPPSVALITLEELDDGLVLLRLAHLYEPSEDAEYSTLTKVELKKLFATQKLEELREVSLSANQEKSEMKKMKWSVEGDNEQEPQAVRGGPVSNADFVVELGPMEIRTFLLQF
As to the kind of experiment: Inhibition of jack bean alpha-mannosidase assessed as reduction of p-nitrophenol release using p-nitrophenyl-glycoside as substrate at 1000 uM by spectrophotometric analysis.

The next assay is filed under the species Sus scrofa. Nature of the assay: Inhibition of porcine kidney alpha-trehalase assessed as reduction of p-nitrophenol release using p-nitrophenyl-glycoside as substrate at 1000 uM by spectrophotometric analysis. Type of assay: tissue-based.
The test system of the next assay is Aspergillus niger. As to the kind of experiment: Inhibition of Aspergillus niger amyloglucosidase assessed as reduction of p-nitrophenol release using p-nitrophenyl-glycoside as substrate at 1000 uM by spectrophotometric analysis.
Assay [15] can be described thus: Inhibition of Penicillium decumbens alpha-L-rhamnosidase assessed as reduction of p-nitrophenol release using p-nitrophenyl-glycoside as substrate by spectrophotometric analysis.
Assay [16] concerns the target Lysosomal alpha-glucosidase (Homo sapiens) (UniProt P10253). Nature of the assay: Inhibition of human lysosomal alpha-glucosidase assessed as reduction of p-nitrophenol release using p-nitrophenyl-glycoside as substrate at 1000 uM by spectrophotometric analysis. The note with it: Lysosome.

Molecules are shown by their SMILES.

With `OC[C@H]1NC[C@@H](O)[C@@H]1O`, the half-maximal inhibitory concentration (IC50) in [1] is 2.5 µM; in assay [2] it was 87 µM; in [3] it was 967 µM; in assay [5] it was 340 µM; in [9], 11 µM; in assay [10] it was 355 µM. For the same molecule, the inhibition was 7.9% in the assay filed under Bos taurus [4]; 4.1% in assay [6]; 11.4% in the assay listed under Bos taurus [7]; 13% in the assay with Helix pomatia; 9% in [8]; 13.5% with Penicillium decumbens. Further, the inhibition was found to be 5.3% with Escherichia coli and 6.3% in the assay filed under Bos taurus [11].
In the case of `O[C@H]1[C@H](CCCc2ccccc2)NC[C@@H]1O`, the inhibition turned out to be 30% with Saccharomyces cerevisiae; 42.9% in the assay with Oryza sativa; 48.8% with Prunus dulcis; 35% in the assay filed under Bos taurus [4]; 0% in assay [6]; 11.5% in assay [14]. The inhibition worked out at 5.2% in the assay on Helix pomatia; 0% in assay [8]; 0% in the assay filed under Sus scrofa; 0% in the assay on Aspergillus niger; 42.7% with Escherichia coli; 0.3% in the assay filed under Bos taurus [11]. For the same molecule, the inhibition in assay [16] amounted to 27.8%. Further, the half-inhibitory concentration (IC50) was found to be 178 µM in assay [12], 9.5 µM in assay [5], 665 µM in assay [13] and 131 µM in [15].
